Patent US11046680B1, “Heteroaryl-substituted triazoles as APJ receptor agonists” (priority 2016, dated 2021)
pEC50: −log10 of the molar value.

biological target: human APJ receptor (Homo sapiens (Human), UniProt P35414); experiment: biochemical; type: biochemical; conditions: [35S]GTPγS binding, CHO membranes expressing human APJ receptor; read-out: Activity hAPJ SPA EC50 IP
Procedure, shortened: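 Membranes of a stable CHO line carrying human APJ (pFLAG-CMV-3) were used in a GTPγS binding format; buffer GDP, MgCl2 and NaCl were optimized, and plates were read after 90 min at RT.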

Chain of human APJ receptor (P35414 whole entry): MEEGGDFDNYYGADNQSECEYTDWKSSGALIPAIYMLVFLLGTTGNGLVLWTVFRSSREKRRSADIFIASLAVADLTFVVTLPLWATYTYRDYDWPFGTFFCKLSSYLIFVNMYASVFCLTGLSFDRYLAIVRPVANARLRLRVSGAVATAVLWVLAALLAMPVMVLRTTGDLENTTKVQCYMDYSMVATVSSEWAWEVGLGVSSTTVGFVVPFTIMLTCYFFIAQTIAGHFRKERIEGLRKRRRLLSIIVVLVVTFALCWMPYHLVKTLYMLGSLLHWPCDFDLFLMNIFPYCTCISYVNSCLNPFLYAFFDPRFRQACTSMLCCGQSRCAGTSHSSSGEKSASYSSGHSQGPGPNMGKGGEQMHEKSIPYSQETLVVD

Compound | pEC50
COc1cccc(OC)c1-n1c(NS(=O)(=O)CCc2ccc(Cl)cc2)nnc1-c1cc(C)on1 [Example 145.0, 2-(4-chlorophenyl)-N-(4-(2,6-dimethoxyphenyl)-5-(5-methylisoxazol-3-yl)-4H-1,2,4-triazol-3-yl)ethanesulfonamide] | 7.15
COc1cccc(OC)c1-n1c(NS(=O)(=O)[C@H](C)Cc2ncc(F)cn2)nnc1-c1nc(C)cs1 (single isomer, unassigned) [Example 101.0, (R)-N-(4-(2,6-Dimethoxyphenyl)-5-(4-methylthiazol-2-yl)-4H-1,2,4-triazol-3-yl)-1-(5-fluoropyrimidin-2-yl)propane-2-sulfonamide or (S)-N-(4-(2,6-dimethoxyphenyl)-5-(4-methylthiazol-2-yl)-4H-1,2,4-triazol-3-yl)-1-(5-fluoropyrimidin-2-yl)propane-2-sulfonamide] | 9.15
(R)-N-(4-(2,6-dimethoxyphenyl)-5-(1,5-dimethyl-1H-pyrazol-3-yl)-4H-1,2,4-triazol-3-yl)-1-(5-fluoropyrimidin-2-yl)propane-2-sulfonamide and (S)-N-(4-(2,6-dimethoxyphenyl)-5-(1,5-dimethyl-1H-pyrazol-3-yl)-4H-1,2,4-triazol-3-yl)-1-(5-fluoropyrimidin-2-yl)propane-2-sulfonamide [Example 54.0] | 7.48
COc1cccc(OC)c1-n1c(NS(=O)(=O)C[C@H](OC)c2ccc(Cl)cn2)nnc1-c1ccn(C)n1 (single isomer, unassigned) [Example 376.0, (R)-2-(5-Chloropyridin-2-yl)-N-(4-(2,6-dimethoxyphenyl)-5-(1-methyl-1H-pyrazol-3-yl)-4H-1,2,4-triazol-3-yl)-2-methoxyethanesulfonamide or (S)-2-(5-chloropyridin-2-yl)-N-(4-(2,6-dimethoxyphenyl)-5-(1-methyl-1H-pyrazol-3-yl)-4H-1,2,4-triazol-3-yl)-2-methoxyethanesulfonamide] | 8.77
COc1cccc(OC)c1-n1c(NS(=O)(=O)C[C@H](OC)c2ccc(F)cc2S(C)(=O)=O)nnc1-c1ccn(C)n1 (single isomer, unassigned) [Example 373.0, (R)-N-(4-(2,6-Dimethoxyphenyl)-5-(1-methyl-1H-pyrazol-3-yl)-4H-1,2,4-triazol-3-yl)-2-(4-fluoro-2-(methylsulfonyl)phenyl)-2-methoxyethanesulfonamide or (S)-N-(4-(2,6-dimethoxyphenyl)-5-(1-methyl-1H-pyrazol-3-yl)-4H-1,2,4-triazol-3-yl)-2-(4-fluoro-2-(methylsulfonyl)phenyl)-2-methoxyethanesulfonamide] | 8.89
COc1cccc(OC)c1-n1c(NS(=O)(=O)[C@H](C)[C@@H](C)c2ncc(Cl)cn2)nnc1-c1n[nH]c2ccccc12 [Example 430.0] | 8.55
COCC1(n2c(NS(=O)(=O)[C@@H](C)[C@H](OC)c3ncc(Cl)cn3)nnc2-c2cnn3ccccc23)CCC1 [Example 508.0] | 7.21
COCC1(n2c(NS(=O)(=O)[C@@H](C)[C@H](OC)c3ncc(Cl)cn3)nnc2-c2noc3ccccc23)CC1 [Example 505.0, (1R,2S)-N-(5-(1,2-benzoxazol-3-yl)-4-(1-(methoxymethyl)cyclopropyl)-4H-1,2,4-triazol-3-yl)-1-(5-chloro-2-pyrimidinyl)-1-methoxy-2-propanesulfonamide] | 8.07
COc1ccc(NCCO)cc1-n1c(NS(=O)(=O)CCc2ccc(Cl)cc2)nnc1-c1cccs1 [Example 251.0, 2-(4-chlorophenyl)-N-(4-(5-((2-hydroxyethyl)amino)-2-methoxyphenyl)-5-(2-thiophenyl)-4H-1,2,4-triazol-3-yl)ethanesulfonamide] | 6.34
